Experiment [1] addresses T1, full-length NS3/NS4A-2 (HCV NS3 protease) (Hepatitis C virus genotype 1b, UniProt Q9WMX2).
T1 construct: Recombinant E. coli or Baculovirus full-length NS3; host or cells: E. coli or baculovirus (BV) expression
The experiment can be described thus: NS3 Inhibition Assay (NS3-NS4 protease assay, RETS1 substrate). It counts as biochemical. The following applies: NS3/NS4A-2 protease. The procedure: NS3 Complex Formation with NS4A-2.
Recombinant E. coli or Baculovirus full-length NS3 was diluted to 3.33 μM with assay buffer and transferred material to an eppendorf tube and placed in a water bath in a 4° C. refrigerator. The appropriate amount of NS4A-2 diluted to […] in assay buffer was added to equal the volume of NS3 above (conversion factor—3.8 mg/272 μL assay buffer). The material was transferred to an eppendorf tube and placed in water bath in a 4° C. refrigerator.
After equilibration to 4° C., equal volumes of NS3 and NS4A-2 solutions were combined in an eppendorf tube, mix gently with a manual pipettor, and incubate mixture for 15 minutes in the 4° C. water bath. Final concentrations in the mixture are 1.67 μM NS3, 4.15 mM NS4A-2 (2485-fold molar excess NS4A-2).
After 15 minutes at 4° C., the NS3/NS4A-2 eppendorf tube was removed and place it in a room temperature water bath for 10 minutes. NS3/NS4A-2 was aliquoted at appropriate volumes and store at −80° C. (E. coli NS3 run at 2 nM in assay, aliquot at 25 μL. BV NS3 run at 3 nM in assay, aliquot at 30 μL).
Step a. Sample compounds were dissolved to 10 mM in DMSO then diluted to 2.5 mM (1:4) in DMSO. Typically, compounds were added to an assay plate at 2.5 mM concentration, yielding upon dilution a starting concentration of 50 microM in the assay inhibition curve. Compounds were serial diluted in assay buffer to provide test solutions at lower concentrations.
Step b. The E. coli. NS3/NS4A-2 was diluted to 4 nM NS3 (1:417.5 of 1.67 μM stock−18 μL1.67 μM stock+7497 μL assay buffer). The BV NS3/NS4A-2 was diluted to 6 nM NS3 (1:278.3 of 1.67 μM stock−24 μL1.67 μM stock+6655 μL assay buffer).
Step c. Using the manual multichannel pipettor, and being careful not to introduce bubbles into the plate, 50 μL assay buffer were added to wells A01-H01 of a black Costar 96-well polypropylene storage plate.
Step d. Using the manual multichannel pipettor, and being careful not to introduce bubbles into the plate, 50 μL of diluted NS3/NS4A-2 from Step b were added to wells A02-H12 of the plate in Step c.
Step e. Using the manual multichannel pipettor, and being careful not to introduce bubbles into the plate, 25 μL of the wells in drug dilution plate in Step a were transferred to corresponding wells in assay plate in Step d. The tips on the multichannel pipettor were changed for each row of compounds transferred.
Step f Using the manual multichannel pipettor, and being careful not to introduce bubbles into the plate, the contentes of the wells from the assay plate in Step e were mixed by aspirating and dispensing 35 μL of the 75 μL in each well five times. The tips on multichannel pipettor were changed for each row of wells mixed.
Step g. The plate was covered with a polystyrene plate lid, and the plate from Step f containing NS3 protease and sample compounds was pre-incubated 10 minutes at room temperature.
While plate from Step g is pre-incubating, the RETS1 substrate was diluted in a 15 mL polypropylene centrifuge tube. The RETS1 substrate was diluted to 8 μM (1:80.75 of 646 μM stock—65 μL 646 μM stock+5184 μL assay buffer).
After the plate in Step g was done pre-incubating, and using the manual multichannel, 25 μL of substrate were added to all wells on the plate. The contents of the wells of the plate were quickly mixed, as in Step f, mixing 65 μL of the 100 μL in the wells.
The plate was read in kinetic mode on the Molecular Devices SpectraMax Gemini XS plate reader. Reader settings: Read time: 30 minutes, Interval: 36 seconds, Reads: 51, Excitation λ: 335 nm, Emission λ: 495 nm, cutoff: 475 nm, Automix: off, Calibrate: once, PMT: high, Reads/well: 6, Vmax pts: 21 or 28/51 depending on length of linearity of reaction
IC50s are determined using a four parameter curve fit equation, and converted to Ki's using the following Km's: […]
Full-length E. coli NS3−2.03 μM
Full-length BV NS3−1.74 μM
where Ki=IC50/(1+[S]/Km))

Experiment [2] concerns HCV sub-genomic replicon, GS4.3 (HuH-7 hepatoma cells). Put plainly: Quantitation by ELISA of NPTII in the HCV sub-genomic replicon, GS4.3. It counts as cell-based. The following applies: Hepatitis C virus, GS4.3 replicon cells, 72 h incubation. An excerpt: Quantitation by ELISA of the Selectable Marker Protein, Neomycin Phosphotransferase II (NPTII) in the HCV Sub-Genomic Replicon, GS4.3
The HCV sub-genomic replicon (1377/NS3-3′, accession No. AJ242652), stably maintained in HuH-7 hepatoma cells, was created by Lohmann et al. Science 285: 110-113 (1999). The replicon-containing cell culture, designated GS4.3, was obtained from Dr. Christoph Seeger of the Institute for Cancer Research, Fox Chase Cancer Center, Philadelphia, Pa.
GS4.3 cells were maintained at 37° C., 5% CO2, in DMEM (Gibco 11965-092) supplemented with L-glutamine 200 mM (100×) (Gibco25030-081), non-essential amino acids (NEAA)(Biowhittaker 13-114E), heat-inactivated (HI) Fetal Bovine Serum(FBS)(Hyclone SH3007.03) and 750 μg/mL geneticin (G418)(Gibco 10131-035). Cells were sub-divided 1:3 or 4 every 2-3 days.
24 h prior to the assay, GS4.3 cells were collected, counted, and plated in 96-well plates (Costar 3585) at 7500 cells/well in […] standard maintenance medium (above) and incubated in the conditions above. To initiate the assay, culture medium was removed, cells were washed once with PBS (Gibco 10010-023) and 90 μl Assay Medium (DMEM, L-glutamine, NEAA, 10% HI FBS, no G418) was added. Inhibitors were made as a 10× stock in Assay Medium, (3-fold dilutions from 10 μM to […] final concentration, final DMSO concentration 1%), […] were added to duplicate wells, plates were rocked to mix, and incubated as above for 72 h.
An NPTII Elisa kit was obtained from AGDIA, Inc. (Compound direct ELISA test system for Neomycin Phosphotransferase II, PSP 73000/4800). Manufacturer's instructions were followed, with some modifications. 10×PEB-1 lysis buffer was made up to include 500 μM PMSF (Sigma P7626, 50 mM stock in isopropanol). After 72 h incubation, cells were washed once with PBS and […] PEB-1 with PMSF was added per well. Plates were agitated vigorously for 15 minutes, room temperature, then frozen at −70° C. Plates were thawed, lysates were mixed thoroughly, and 100 μl were applied to an NPTII Elisa plate. A standard curve was made. Lysate from DMSO-treated control cells was pooled, serially diluted with PEB-1 with PMSF, and applied to duplicate wells of the ELISA plate, in a range of initial lysate amount of 150 μL-2.5 μL. In addition, 100 μL buffer alone was applied in duplicate as a blank. Plates were sealed and gently agitated at room temperature for 2 h. Following capture incubation, the plates were washed 5×300 μL with PBS-T (0.5% Tween-20, PBS-T was supplied in the ELISA kit). For detection, a 1× dilution of enzyme conjugate diluent MRS-2 (5×) was made in PBS-T, into which 1:100 dilutions of enzyme conjugates A and B were added, as per instructions. Plates were resealed, and incubated with agitation, covered, room temperature, for 2 h. The washing was then repeated and 100 μL, of room temperature TMB substrate was added. After approximately 30 minutes incubation (room temperature, agitation, covered), the reaction was stopped with 50 μL, 3M sulfuric acid. Plates were read at 450 nm on a Molecular Devices Versamax plate reader.
Inhibitor effect was expressed as a percentage of DMSO-treated control signal, and inhibition curves were calculated using a 4-parameter equation: y=A+((B−A)/(1+((C/x)̂D))), where C is half-maximal activity or EC50.
A general note: ELISA stands for enzyme-linked immunosorbent assay.

Each structure is given as a SMILES string.

The term IC50 denotes the concentration that gives 50% inhibition. Usually EC50 stands for the concentration at which the effect is half-maximal. A lower EC50 goes with an effect from little substance.

T1 sequence (Q9WMX2 1027-1657): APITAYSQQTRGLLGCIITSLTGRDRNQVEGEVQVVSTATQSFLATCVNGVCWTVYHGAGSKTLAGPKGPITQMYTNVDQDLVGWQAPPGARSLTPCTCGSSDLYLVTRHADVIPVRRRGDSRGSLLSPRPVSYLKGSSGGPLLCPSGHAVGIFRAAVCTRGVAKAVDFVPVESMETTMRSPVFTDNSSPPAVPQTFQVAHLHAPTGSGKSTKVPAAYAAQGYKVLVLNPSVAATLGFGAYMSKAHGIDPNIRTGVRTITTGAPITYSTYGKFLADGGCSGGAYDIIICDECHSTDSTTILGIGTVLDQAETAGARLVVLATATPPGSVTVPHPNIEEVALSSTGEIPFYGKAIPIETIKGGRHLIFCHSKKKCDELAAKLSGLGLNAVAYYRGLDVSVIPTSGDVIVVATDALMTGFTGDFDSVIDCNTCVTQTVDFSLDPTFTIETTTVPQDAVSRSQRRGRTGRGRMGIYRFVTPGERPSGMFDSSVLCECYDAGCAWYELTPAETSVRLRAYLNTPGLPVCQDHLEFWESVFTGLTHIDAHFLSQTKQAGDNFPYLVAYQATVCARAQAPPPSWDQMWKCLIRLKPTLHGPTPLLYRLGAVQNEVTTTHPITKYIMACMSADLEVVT
T1 sequence (Q9WMX2 1658-1711): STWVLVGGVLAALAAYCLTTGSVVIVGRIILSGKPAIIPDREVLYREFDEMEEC

Compound `C=C[C@@H]1C[C@]1(NC(=O)[C@H]1Cc2cc(Oc3cccc(Cl)c3)ccc2CN1C(=O)[C@@H](Nc1cccc(C(F)(F)F)c1)C(C)(C)C)C(=O)NS(=O)(=O)C1CC1` [Compound 24] came in with a half-inhibitory concentration (IC50) in experiment [1] of less than 0.1 µM. The compound also gave an EC50 in experiment [2] of more than 1 µM.
`C=C[C@@H]1C[C@]1(NC(=O)[C@@H]1C[C@@H](Oc2nccc3ccccc23)CN1C(=O)[C@@H](Nc1cc(F)cc(C(F)(F)F)c1)C(C)(C)C)C(=O)NS(=O)(=O)C1CC1` [Compound 7] had an IC50 in experiment [1] of less than 0.1 µM. The EC50 in experiment [2] is less than 0.1 µM.
With `CC[C@@H]1C[C@]1(NC(=O)[C@@H]1C[C@@H](Oc2nc3ccccc3s2)CN1C(=O)[C@@H](Nc1cccc(C(F)(F)F)c1)C(C)(C)C)C(=O)NS(=O)(=O)C1(C)CC1` [Compound 231], the IC50 in experiment [1] is less than 0.1 µM. In experiment [2], this compound had an EC50 of less than 0.1 µM.
In experiment [1], `CC[C@@H]1C[C@]1(NC(=O)[C@@H]1C[C@@H](OC(=O)N2Cc3ccc(NC(=O)COC)cc3C2)CN1C(=O)[C@@H](Nc1cc(F)cc(C(F)(F)F)c1)C(C)(C)C)C(=O)NS(=O)(=O)C1CC1` [Compound 19] gave an IC50 of less than 0.1 µM. The compound further displayed an EC50 in experiment [2] of less than 0.1 µM.
Compound `CC[C@@H]1C[C@]1(NC(=O)[C@@H]1C[C@@H](OC(=O)N2Cc3ccc(NC(=O)CN4CCOCC4)cc3C2)CN1C(=O)[C@@H](Nc1cc(F)cc(C(F)(F)F)c1)C(C)(C)C)C(=O)NS(=O)(=O)C1CC1` [Compound 20] returned an IC50 in experiment [1] of less than 0.1 µM. The compound further showed an EC50 in experiment [2] of less than 0.1 µM.
`CC[C@@H]1C[C@]1(NC(=O)[C@@H]1C[C@@H](OC(=O)N2Cc3ccc(OC)cc3C2)CN1C(=O)[C@@H](Nc1cc(F)cc(C(F)(F)F)c1)C(C)(C)C)C(=O)NS(=O)(=O)C1(C)CC1` [Compound 291] yielded an IC50 in experiment [1] of less than 0.1 µM. The 50% effective concentration (EC50) in experiment [2] is less than 0.1 µM.
`CC[C@@H]1C[C@]1(NC(=O)[C@@H]1C[C@@H](OC(=O)N2Cc3cccc(Cl)c3C2)CN1C(=O)[C@@H](Nc1cc(F)cc(C(F)(F)F)c1)C(C)(C)C)C(=O)NS(=O)(=O)C1(C)CC1` [Compound 283]: in experiment [1], the IC50 was less than 0.1 µM. In experiment [2], the EC50 was less than 0.1 µM.
In the case of `C=C[C@@H]1C[C@]1(NC(=O)[C@@H]1C[C@@H](Oc2cc(-c3nc(C(C)C)cs3)nc3c(C)c(OC)ccc23)CN1C(=O)[C@@H](Nc1cc(F)cc(OC(F)(F)F)c1)C(C)(C)C)C(=O)NS(=O)(=O)C1(C)CC1` [Compound 404], the IC50 in experiment [1] is less than 0.1 µM. In experiment [2], this compound registered an EC50 of less than 0.1 µM.
The compound `C=C[C@@H]1C[C@]1(NC(=O)[C@@H]1C[C@@H](Oc2cc(-c3nc(C(C)C)cs3)nc3c(C)c(OC)ccc23)CN1C(=O)[C@@H](Nc1cc(C)cc(C(F)(F)F)c1)C(C)(C)C)C(=O)NS(=O)(=O)C1(C)CC1` [Compound 402] displayed a half-maximal inhibitory concentration (IC50) in experiment [1] of less than 0.1 µM. This compound also yielded an EC50 in experiment [2] of less than 0.1 µM.
As to `CC[C@@H]1C[C@]1(NC(=O)[C@@H]1C[C@@H](OC(=O)N2Cc3cccc(F)c3C2)CN1C(=O)[C@@H](Nc1ccc(-n2cccn2)cc1)C(C)(C)C)C(=O)NS(=O)(=O)C1CC1` [Compound 16], the half-inhibitory concentration (IC50) in experiment [1] is less than 0.1 µM. In addition, the EC50 in experiment [2] is 0.1 to 1 µM.
The compound `CC[C@@H]1C[C@]1(NC(=O)[C@@H]1C[C@@H](OC(=O)N2Cc3cccc(F)c3C2)CN1C(=O)[C@@H](Nc1cccc(C(=O)N2CCN(C)CC2)c1)C(C)(C)C)C(=O)NS(=O)(=O)C1CC1` [Compound 8] came in with an IC50 in experiment [1] of less than 0.1 µM. In experiment [2], this compound registered an EC50 of more than 1 µM.
For `C=C[C@@H]1C[C@]1(NC(=O)[C@@H]1C[C@@H](Oc2cc(-c3ccccc3)nc3cc(OC)ccc23)CN1C(=O)[C@@H](Nc1cc(F)cc(C(F)(F)F)c1)C(C)(C)C)C(=O)NS(=O)(=O)C1(C)CC1` [Compound 281] the same measures were less than 0.1 µM and less than 0.1 µM.
As to `C=C[C@@H]1C[C@]1(NC(=O)[C@@H]1Cc2cc(Oc3cccc(Cl)c3)ccc2CN1C(=O)[C@@H](Nc1cccc(C(F)(F)F)c1)C(C)(C)C)C(=O)NS(=O)(=O)C1CC1` [Compound 23], the IC50 in experiment [1] is less than 0.1 µM. Moreover, the EC50 in experiment [2] is more than 1 µM.
Compound `CC(C)(C)[C@H](Nc1cc(F)cc(C(F)(F)F)c1)C(=O)N1C[C@H](OC(=O)N2Cc3cccc(Cl)c3C2)C[C@H]1C(=O)N[C@]1(C(=O)NS(=O)(=O)C2CC2)C[C@H]1C1CC1` [Compound 292] gave an IC50 in experiment [1] of less than 0.1 µM. For the same compound, in experiment [2], the EC50 was less than 0.1 µM.
The compound `CCOC(=O)c1cccc(N[C@H](C(=O)N2C[C@H](OC(=O)N3Cc4cccc(F)c4C3)C[C@H]2C(=O)N[C@]2(C(=O)NS(=O)(=O)C3CC3)C[C@H]2CC)C(C)(C)C)c1` [Compound 4] gave an IC50 in experiment [1] of less than 0.1 µM. The compound also returned an EC50 in experiment [2] of 0.1 to 1 µM.
In experiment [1], `C=C[C@@H]1C[C@]1(NC(=O)[C@@H]1C[C@@H](Oc2cc(-c3nc(C(C)C)cs3)nc3c(C)c(OC)ccc23)CN1C(=O)[C@@H](Nc1cc(Cl)cc(C(F)(F)F)c1)C(C)(C)C)C(=O)NS(=O)(=O)C1(C)CC1` [Compound 403] came in with an IC50 of less than 0.1 µM. In experiment [2], the half-maximal effective concentration (EC50) was less than 0.1 µM.

These data come from patent US20100119479A1, “THERAPEUTIC ANTIVIRAL PEPTIDES” (INTERMUNE, INC., priority 2008, published 2010).
